# Marks after values point to notes of the source that are not given here.
# How the values were obtained:
# C57B1/6J mice [1] = test: Hematological changes in mice by a single subcutaneous injection of TCDD; type: in vivo; design: NEU / LYM / PLT: unit not given here
# Description: (§1) Male C57B1/6J mice of 5 weeks old having the average weight of 18-22 g which had been bred in CRJ (Charles River in Japan) were purchased and used in this example as experimental animals. Those mice were acclimated under the constant breeding condition, i.e. the temperature of 24±1° C., the humidity of 60±10% and the light and darkness cycle of 12 hours, for one week and thereafter, utilized in the experiment.
# (§2) 2,3,7,8-tetrachlorodibenzo-p-dioxin (TCDD) dissolved in toluene (purity of 95% or more as a result of gas chromatography analysis), manufactured by Chem. Services Inc. in USA, was volatilized with nitrogen to obtain powder. The obtained powder was dissolved in a mixed solvent containing acetone and corn oil with a volume ratio of 1:6. The resulting solution each containing 110, 27.5 and 6.9 μg/kg of TCDD was subcutaneously injected to mice at a volume of 5 ml per body weight. […] The mice were supplied with the feed from 10 days before (pre-administration) to 60 days after administration of TCDD (post-administration).
# Upon completion of the experiment for 60 days, the experimental animals were fasted for 24 hours and anesthetized with ether. Then, they were abdominally incised and blood was gathered from abdominal vena cava. They were sacrificed by the release of blood. Liver, kidneys, testes and epididymides were extracted and all the extracted organs were weighed. Only the testes were separately kept and observed under optical and electron microscopes. For biochemical finding test, serum was separated from blood with a centrifuge and the separated serum was analyzed with an automated blood biochemical analyzer, Dimension (Dupont, USA). Blood was put to another blood gathering bottle and then, analyzed with an automated blood cell analyzer, Celldyn (Abbott, USA).
# (§3) The results are expressed as Mean±Standard Deviation values. For statistical analysis of the body weight, feed and water uptake, biochemical findings, hematological findings and the weight of organ in an acute toxicity test, verification was performed by one way analysis of variance (ANOVA) in case of equal distribution. In case significance was recognized in ANOVA, the Student's t-test was performed in the levels of p<0.05 and p<0.01.
# For hematological findings, white blood cell (WBC), neutrophil (NEU), lymphocyte (LYM), monocyte (MONO), eosinophil (EOS), basophil (BASO) and red blood cell (RBC) counts, and hemoglobin concentration (HGB), hematocrit (HCT), mean cell volume (MCV), mean corpuscular hemoglobin (MCH), mean corpuscular hemoglobin concentration (MCHC), red blood cell distribution width (RDW) and platelet count (PLT) were measured and the results are as follows.
# C57B1/6J mice [2] = test: Feed uptake of mice after a single subcutaneous injection of TCDD; type: in vivo; design: unit not given here
# Description: as §1
# The Experimental animals were supplied with Purina powdered feed (purchased from Hae Eun Trade) and supplied with water ad libitum. All the animals were weighed twice a week during experimentation.
# as §2, §3
compound,measurement,setting,value
"Clc1cc2c(cc1Cl)Oc1cc(Cl)c(Cl)cc1O2 [TCDD, 2,3,7,8-tetrachlorodibenzo-p-dioxin]",BASO,C57B1/6J mice [1]; TCDD 6.9 μg/kg alone,0.21 ± 0.12 10^3
same,EOS,C57B1/6J mice [1]; TCDD 6.9 μg/kg alone,0.01 ± 0.01 10^3
same,HCT,C57B1/6J mice [1]; TCDD 6.9 μg/kg alone,43.12 ± 5.04%
same,HGB,C57B1/6J mice [1]; TCDD 6.9 μg/kg alone,13.65 ± 1.34 g/dL
same,LYM,C57B1/6J mice [1]; TCDD 6.9 μg/kg alone,4.27 ± 2.05 10^3
same,MCH,C57B1/6J mice [1]; TCDD 6.9 μg/kg alone,14.70 ± 0.41 pg
same,MCHC,C57B1/6J mice [1]; TCDD 6.9 μg/kg alone,31.76 ± 0.70 g/dL
same,MCV,C57B1/6J mice [1]; TCDD 6.9 μg/kg alone,46.33 ± 1.97 fL
same,MONO,C57B1/6J mice [1]; TCDD 6.9 μg/kg alone,0.10 ± 0.07 10^3
same,NEU,C57B1/6J mice [1]; TCDD 6.9 μg/kg alone,0.40 ± 0.24 10^3
same,PLT,C57B1/6J mice [1]; TCDD 6.9 μg/kg alone,1140.88 ± 133.39 10^3
same,RBC,C57B1/6J mice [1]; TCDD 6.9 μg/kg alone,9.29 ± 0.85 10^6
same,RDW,C57B1/6J mice [1]; TCDD 6.9 μg/kg alone,20.38 ± 1.21%
same,WBC,C57B1/6J mice [1]; TCDD 6.9 μg/kg alone,5.94 ± 1.85 10^3
same,BASO,C57B1/6J mice [1]; TCDD 27.5 μg/kg alone,0.17 ± 0.07 10^3
same,EOS,C57B1/6J mice [1]; TCDD 27.5 μg/kg alone,0.018 ± 0.028 10^3
same,HCT,C57B1/6J mice [1]; TCDD 27.5 μg/kg alone,39.12 ± 3.25 %
same,HGB,C57B1/6J mice [1]; TCDD 27.5 μg/kg alone,12.90 ± 1.00 g/dL
same,LYM,C57B1/6J mice [1]; TCDD 27.5 μg/kg alone,1.43 ± 0.60** 10^3
same,MCH,C57B1/6J mice [1]; TCDD 27.5 μg/kg alone,14.17 ± 0.40 pg
same,MCHC,C57B1/6J mice [1]; TCDD 27.5 μg/kg alone,33.02 ± 0.86 g/dL
same,MCV,C57B1/6J mice [1]; TCDD 27.5 μg/kg alone,42.97 ± 0.56 fL
same,MONO,C57B1/6J mice [1]; TCDD 27.5 μg/kg alone,0.07 ± 0.04 10^3
same,NEU,C57B1/6J mice [1]; TCDD 27.5 μg/kg alone,2.58 ± 0.97** 10^3
same,PLT,C57B1/6J mice [1]; TCDD 27.5 μg/kg alone,1473.17 ± 110.35** 10^3
same,RBC,C57B1/6J mice [1]; TCDD 27.5 μg/kg alone,9.10 ± 0.71 10^6
same,RDW,C57B1/6J mice [1]; TCDD 27.5 μg/kg alone,20.97 ± 2.27%
same,WBC,C57B1/6J mice [1]; TCDD 27.5 μg/kg alone,4.29 ± 1.05 10^3
same,feed uptake,"C57B1/6J mice [2]; TCDD 6.9 μg/kg alone, 10 days",4.76 ± 0.74
same,feed uptake,"C57B1/6J mice [2]; TCDD 6.9 μg/kg alone, 20 days",4.33 ± 0.84
same,feed uptake,"C57B1/6J mice [2]; TCDD 6.9 μg/kg alone, 30 days",4.97 ± 1.00
same,feed uptake,"C57B1/6J mice [2]; TCDD 6.9 μg/kg alone, 40 days",4.97 ± 1.00
same,feed uptake,"C57B1/6J mice [2]; TCDD 6.9 μg/kg alone, 50 days",3.51 ± 0.31
same,feed uptake,"C57B1/6J mice [2]; TCDD 6.9 μg/kg alone, 60 days",3.28 ± 1.56
same,feed uptake,"C57B1/6J mice [2]; TCDD 27.5 μg/kg alone, 10 days",3.86 ± 0.87
same,feed uptake,"C57B1/6J mice [2]; TCDD 27.5 μg/kg alone, 20 days",3.17 ± 1.68
same,feed uptake,"C57B1/6J mice [2]; TCDD 27.5 μg/kg alone, 30 days",2.37 ± 0.37
same,feed uptake,"C57B1/6J mice [2]; TCDD 27.5 μg/kg alone, 40 days",1.90 ± 0.27
same,feed uptake,"C57B1/6J mice [2]; TCDD 27.5 μg/kg alone, 50 days",1.50 ± 0.16
same,feed uptake,"C57B1/6J mice [2]; TCDD 27.5 μg/kg alone, 60 days",1.58 ± 0.32
same,feed uptake,"C57B1/6J mice [2]; TCDD 110.0 μg/kg alone, 10 days",4.19 ± 0.96
same,feed uptake,"C57B1/6J mice [2]; TCDD 110.0 μg/kg alone, 20 days",3.21 ± 1.13
same,feed uptake,"C57B1/6J mice [2]; TCDD 110.0 μg/kg alone, 30 days",3.88 ± 0.96
same,feed uptake,"C57B1/6J mice [2]; TCDD 110.0 μg/kg alone, 40 days",2.23 ± 0.56

# — patent US20040029965A1, “Formulations for reducing or eliminating toxicity of enviromental hormones containing ursodeoxycholic acid” (priority 2000, published 2004)
